# Legend:
# K. pneumoniae [1] = test: ESBL NDP test using cultured strains; assay type: biochemical, Klebsiella pneumoniae; parameters: key: (+) and (−) referred to color change being, red to yellow or unchanged, respectively; (+) and (−) referred to color change being, red to yellow or unchanged, respectively
# Experimental: (§1) Strains were isolated on Mueller-Hinton agar (Biorad, Marnes-la-Coquette, France) and incubated at 37° C. for 16 h to 24 h before performing the NDP rapid ESBL test as follows. One calibrated inoculated loop (10 μl) of the tested strain was resuspended in 150 μl of 20 mM Tris-HCl lysis buffer previously distributed in Microbead tubes (Ultraclean Microbial DNA isolation kit Bead Tubes, MO BIO Laboratories, Carlsbad, USA). Mechanical lysis of bacteria was performed by strong agitation of Microbead tubes using a vortex adapter (MO BIO Laboratories) for 30 min at room temperature. This bacterial suspension was centrifuged at 10,000×g at room temperature for 5 min. Thirty μl of the supernatant was mixed in a well of a 96-well tray with 100 μl of a 1 ml solution made of 3 mg of purified cefotaxime sodium salt (Sigma-Aldrich, Saint-Quentin-Fallavier, France) in a pH 7.8 phenol red solution. […]. The phenol red solution was made by taking 2 ml of a concentrated pH 8 phenol solution (made from a mixture of phenol red 0.5% in distilled water) to which 16.6 ml of distilled water was added. The pH value was then adjusted to a 7.8 value by adding drops of a 1 N NaOH solution. Mixture of the phenol red solution and the enzymatic suspension being tested was incubated at 37° C. for 30 min. Similarly, culture extracts were analyzed in wells containing cefotaxime and tazobactam (4 mg/ml). Other concentrations of tazobactam and other ß-lactamase inhibitors were tested giving less clear results (data not shown). […] This definition of test positivity will be applied throughout the study.
# S. marcescens [2] = test: ESBL NDP test using cultured strains; assay type: biochemical, Serratia marcescens; parameters: key: (+) and (−) referred to color change being, red to yellow or unchanged, respectively; (+) and (−) referred to color change being, red to yellow or unchanged, respectively
# Experimental: as §1
# C. brakii = test: Susceptibility testing, MIC by Etest; assay type: cell-based; conditions: C. brakii Wild-type, chromosome-encoded cephalosporinase, n=1
# Experimental: (§2) Susceptibility testing was performed by determining MIC values using the Etest® (AB bioMérieux; Solna, Sweden) on Mueller-Hinton agar plates at 37° C. and results were recorded according to US guidelines (CLSI), as updated in 2012 (2). The breakpoints for cefotaxime are susceptible (S)≤1 and resistant (R)≥4 μg/ml, and for ceftazidime S≤4 and R≥16 μg/ml.
# E. sakazakii = test: Susceptibility testing, MIC by Etest; assay type: cell-based; conditions: overexpressed chromosome-encoded cephalosporinase, n=1
# Experimental: as §2
# S. ficaria = test: Susceptibility testing, MIC by Etest; assay type: cell-based; conditions: S. ficaria Wild-type, chromosome-encoded cephalosporinase, n=1
# Experimental: as §2
# S. marcescens [3] = test: Susceptibility testing, MIC by Etest; assay type: cell-based, Serratia marcescens; conditions: S. marcescens Wild-type, chromosome-encoded cephalosporinase, n=2
# Experimental: as §2
# K. pneumoniae [4] = test: ESBL NDP test using spiked blood cultures; assay type: biochemical, Klebsiella pneumoniae; parameters: key: (+) and (−) referred to color change being, red to yellow or unchanged, respectively; (+) and (−) referred to color change being, red to yellow or unchanged, respectively
# Experimental: as §1
# Rapid detection of ESBL producers was attempted from spiked blood cultures which positivity was assessed using the BactAlert blood culture system (bioMérieux). […] This inoculum was reached after 24-48 h incubation in this BactAlert system. Strains were inoculated into blood culture system in presence of 10 ml of sterile blood. The panel of strains used for spiking blood cultures included either non-ESBL producers (n=24) or ESBL producers (n=64) (Table 4). Spiked blood cultures were made of 1×10^3 CFU of each strain and incubated 24 to 48 h before a positivity of the blood culture was detected by the BactAlert system. Then, 15 ml of spiked blood culture were transferred in a sterile tube and centrifuged at 1,500×g for 3 min to pellet the red blood cells. The supernatant was recovered and centrifuged for 15 min at 4,000×g to pellet the bacteria. The bacterial pellet was then resuspended in 500 μl of distilled water, transferred in 1.5 ml tube and thoroughly vortexed for 15 sec to lyse the remnant red blood cells and wash the bacterial pellet. After 5 min of centrifugation at 10,000×g, the bacterial pellet was resuspended in 150 μl of 20 mM Tris-HCl lysis buffer and distributed in beadtubes. The ESBL NDP test was then applied to this pellet as described above. Experiments were systematically performed in triplicate.
# E. aerogenes = test: ESBL NDP test using spiked blood cultures; assay type: biochemical, Enterobacter aerogenes; parameters: key: (+) and (−) referred to color change being, red to yellow or unchanged, respectively; (+) and (−) referred to color change being, red to yellow or unchanged, respectively
# Experimental: Strains were isolated on Mueller-Hinton agar (Biorad, Marnes-la-Coquette, France) and incubated at 37° C. for 16 h to 24 h before performing the NDP rapid ESBL test as follows. One calibrated inoculated loop (10 μl) of the tested strain was resuspended in 150 μl of 20 mM Tris-HCl lysis buffer previously distributed in Microbead tubes (Ultraclean Microbial DNA isolation kit Bead Tubes, MO BIO Laboratories, Carlsbad, USA). Mechanical lysis of bacteria was performed by strong agitation of Microbead tubes using a vortex adapter (MO BIO Laboratories) for 30 min at room temperature. This bacterial suspension was centrifuged at 10,000×g at room temperature for 5 min. Thirty μl of the supernatant was mixed in a well of a 96-well tray with 100 μl of a 1 ml solution made of 3 mg of purified cefotaxime sodium salt (Sigma-Aldrich, Saint-Quentin-Fallavier, France) in a pH 7.8 phenol red solution. […]. […] Similarly, culture extracts were analyzed in wells containing cefotaxime and tazobactam (4 mg/ml). […]
# Rapid detection of ESBL producers was attempted from spiked blood cultures which positivity was assessed using the BactAlert blood culture system (bioMérieux). […] Spiked blood cultures were made of 1×10^3 CFU of each strain and incubated 24 to 48 h before a positivity of the blood culture was detected by the BactAlert system. […]
# [5] = K. pneumoniae BG 1202 5484, Penicillinase
smiles,measurement,setting,value
"CO/N=C(\C(=O)N[C@@H]1C(=O)N2C(C(=O)O)=C(COC(C)=O)CS[C@H]12)c1csc(N)n1 [CTX, cefotaxime]",ESBL NDP Test from: Colonies,"K. pneumoniae [1]; K. pneumoniae 09.127, SHV-2a",+
same,ESBL NDP Test from: Colonies,"K. pneumoniae [1]; K. pneumoniae 09.138, TEM-3",+
same,ESBL NDP Test from: Colonies,"K. pneumoniae [1]; K. pneumoniae 09.158, SHV-12",+
same,ESBL NDP Test from: Colonies,"K. pneumoniae [1]; K. pneumoniae 09.162, TEM-52",+
same,ESBL NDP Test from: Colonies,"K. pneumoniae [1]; K. pneumoniae 09.169, TEM-52",+
same,ESBL NDP Test from: Colonies,"K. pneumoniae [1]; K. pneumoniae 09.181, SHV-2a",+
same,ESBL NDP Test from: Colonies,"K. pneumoniae [1]; K. pneumoniae 09.190, SHV-2a",−
same,ESBL NDP Test from: Colonies,"K. pneumoniae [1]; K. pneumoniae 09.200, TEM-3",+
same,ESBL NDP Test from: Colonies,"K. pneumoniae [1]; K. pneumoniae 09.217, SHV-5",+
same,ESBL NDP Test from: Colonies,"K. pneumoniae [1]; K. pneumoniae 09.45, SHV-12",+
same,ESBL NDP Test from: Colonies,"K. pneumoniae [1]; K. pneumoniae 09.60, SHV-5",+
same,ESBL NDP Test from: Colonies,"K. pneumoniae [1]; K. pneumoniae 09.99, SHV-2a",+
same,ESBL NDP Test from: Colonies,"K. pneumoniae [1]; K. pneumoniae 10.159, CTX-M-3",+
same,ESBL NDP Test from: Colonies,"K. pneumoniae [1]; K. pneumoniae ANG, DHA-1",−
same,ESBL NDP Test from: Colonies,K. pneumoniae [1]; [5],−
same,Test (color change),"K. pneumoniae [1]; K. pneumoniae CTX-M-3, n=1",+
same,Test (color change),"K. pneumoniae [1]; K. pneumoniae CTX-M-14, n=3",+
same,Test (color change),"K. pneumoniae [1]; K. pneumoniae CTX-M-15, n=28",+
same,Test (color change),"K. pneumoniae [1]; K. pneumoniae DHA-1, n=1",−
same,Test (color change),"K. pneumoniae [1]; K. pneumoniae DHA-2, n=1",+
same,ESBL NDP Test from: Colonies,"K. pneumoniae [1]; K. pneumoniae FOR, DHA-2",+
same,Test (color change),"K. pneumoniae [1]; K. pneumoniae GES-1, n=1",+
same,ESBL NDP Test from: Colonies,"K. pneumoniae [1]; K. pneumoniae MEK, CTX-M-15",+
same,ESBL NDP Test from: Colonies,"K. pneumoniae [1]; K. pneumoniae SHI, CTX-M-15",+
same,Test (color change),"K. pneumoniae [1]; K. pneumoniae SHV-2a, n=2",−
same,Test (color change),"K. pneumoniae [1]; K. pneumoniae SHV-2a, n=4",+
same,Test (color change),"K. pneumoniae [1]; K. pneumoniae SHV-5, n=2",+
same,Test (color change),"K. pneumoniae [1]; K. pneumoniae SHV-12, n=1",−
same,Test (color change),"K. pneumoniae [1]; K. pneumoniae SHV-12, n=2",+
same,Test (color change),"K. pneumoniae [1]; K. pneumoniae SHV-28, n=3",+
same,Test (color change),"K. pneumoniae [1]; K. pneumoniae TEM-3, n=3",+
same,Test (color change),"K. pneumoniae [1]; K. pneumoniae TEM-52, n=2",+
same,Test (color change),"K. pneumoniae [1]; K. pneumoniae Wild-type penicillinase, n=2",−
same,ESBL NDP Test from: Colonies,"S. marcescens [2]; S. marcescens BG 1107 4243, Wild-type",−
same,ESBL NDP Test from: Colonies,"S. marcescens [2]; S. marcescens BN 1201 0816, Wild-type",−
same,Test (color change),"S. marcescens [2]; S. marcescens Wild-type, chromosome-encoded cephalosporinase, n=2",−
same,MICs range,C. brakii,0.12 µg/mL
same,MICs range,E. sakazakii,>16 µg/mL
same,MICs range,S. ficaria,0.12 µg/mL
same,MICs range,S. marcescens [3],0.19 to 0.75 µg/mL
same,ESBL NDP Test from: Blood culture,"K. pneumoniae [4]; K. pneumoniae 09.127, SHV-2a",+
same,ESBL NDP Test from: Blood culture,"K. pneumoniae [4]; K. pneumoniae 09.138, TEM-3",+
same,ESBL NDP Test from: Blood culture,"K. pneumoniae [4]; K. pneumoniae 09.158, SHV-12",+
same,ESBL NDP Test from: Blood culture,"K. pneumoniae [4]; K. pneumoniae 09.162, TEM-52",+
same,ESBL NDP Test from: Blood culture,"K. pneumoniae [4]; K. pneumoniae 09.169, TEM-52",+
same,ESBL NDP Test from: Blood culture,"K. pneumoniae [4]; K. pneumoniae 09.181, SHV-2a",+
same,ESBL NDP Test from: Blood culture,"K. pneumoniae [4]; K. pneumoniae 09.190, SHV-2a",+
same,ESBL NDP Test from: Blood culture,"K. pneumoniae [4]; K. pneumoniae 09.200, TEM-3",+
same,ESBL NDP Test from: Blood culture,"K. pneumoniae [4]; K. pneumoniae 09.217, SHV-5",+
same,ESBL NDP Test from: Blood culture,"K. pneumoniae [4]; K. pneumoniae 09.45, SHV-12",+
same,ESBL NDP Test from: Blood culture,"K. pneumoniae [4]; K. pneumoniae 09.60, SHV-5",+
same,ESBL NDP Test from: Blood culture,"K. pneumoniae [4]; K. pneumoniae 09.99, SHV-2a",+
same,ESBL NDP Test from: Blood culture,"K. pneumoniae [4]; K. pneumoniae 10.159, CTX-M-3",+
same,ESBL NDP Test from: Blood culture,"K. pneumoniae [4]; K. pneumoniae ANG, DHA-1",−
same,ESBL NDP Test from: Blood culture,K. pneumoniae [4]; [5],−
same,ESBL NDP Test from: Blood culture,"K. pneumoniae [4]; K. pneumoniae FOR, DHA-2",+
same,ESBL NDP Test from: Blood culture,"K. pneumoniae [4]; K. pneumoniae MEK, CTX-M-15",+
same,ESBL NDP Test from: Blood culture,"K. pneumoniae [4]; K. pneumoniae SHI, CTX-M-15",+
same,ESBL NDP Test from: Blood culture,"E. aerogenes; E. aerogenes BN 1113 0225, Wild-type",−
same,ESBL NDP Test from: Blood culture,"E. aerogenes; E. aerogenes E2O15, TEM-121",+

# From patent US10793892B2, “Method for detecting the presence of expanded spectrum β-lactamase-producing bacteria in a sample” (INSERM (INSTITUT NATIONAL DE LA SANTE ET DE LA RECHERCHE …, priority 2011, dated 2020)
